Laboratory results reported in ChEMBL document CHEMBL1136679, “Phenylacetic acid derivatives as hPPAR agonists” (Bioorg Med Chem Lett, 2003).

Columns and labels:
[1] = species on record: Rattus norvegicus; format: functional, Plasma; details: at 30 mg/kg/day
[2] = biological target: T1, Peroxisome proliferator-activated receptor alpha (Homo sapiens, UniProt Q07869)
T1 sequence (Q07869 whole entry): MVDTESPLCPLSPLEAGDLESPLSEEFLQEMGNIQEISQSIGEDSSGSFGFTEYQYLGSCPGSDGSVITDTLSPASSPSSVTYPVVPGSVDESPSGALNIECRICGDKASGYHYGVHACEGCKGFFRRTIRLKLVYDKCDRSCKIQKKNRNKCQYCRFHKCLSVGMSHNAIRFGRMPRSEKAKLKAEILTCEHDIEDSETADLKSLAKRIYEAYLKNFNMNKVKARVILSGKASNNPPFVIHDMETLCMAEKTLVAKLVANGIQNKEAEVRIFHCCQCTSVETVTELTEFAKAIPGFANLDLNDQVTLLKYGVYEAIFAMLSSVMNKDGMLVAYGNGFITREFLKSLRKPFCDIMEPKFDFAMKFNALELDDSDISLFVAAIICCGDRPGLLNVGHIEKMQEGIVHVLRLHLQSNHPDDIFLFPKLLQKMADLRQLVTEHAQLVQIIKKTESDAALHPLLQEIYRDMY

[3] = species on record: Mus musculus; format: functional, Plasma; details: at 100 mg/kg/day
[4] = in vivo; details: male, Sprague-Dawley, rat, iv
[5] = species on record: Rattus norvegicus; format: functional, Plasma; details: at 100 mg/kg/day
[6] = biological target: T1, Peroxisome proliferator-activated receptor alpha; remark: listed apart in the source
[7] = species on record: Rattus norvegicus; format: functional, Plasma; details: at 100 mg/kg/day; remark: listed apart in the source
[8] = in vivo; details: male, Sprague-Dawley, rat, iv; remark: listed apart in the source
[9] = species on record: Rattus norvegicus; format: functional, Plasma; details: at 100 mg/kg/day; remark: listed apart in the source
[10] = species on record: Rattus norvegicus; format: functional, Plasma; details: at 30 mg/kg/day; remark: listed apart in the source
[11] = species on record: Mus musculus; format: functional, Plasma; details: at 100 mg/kg/day; remark: listed apart in the source
[12] = species on record: Rattus norvegicus; format: functional, Plasma; details: at 30 mg/kg/day; remark: listed apart in the source
[13] = in vivo; details: male, Sprague-Dawley, rat, po, 10 mg/kg
[14] = biological target: T2, Peroxisome proliferator-activated receptor delta (Homo sapiens, UniProt Q03181)
T2 sequence (Q03181 whole entry): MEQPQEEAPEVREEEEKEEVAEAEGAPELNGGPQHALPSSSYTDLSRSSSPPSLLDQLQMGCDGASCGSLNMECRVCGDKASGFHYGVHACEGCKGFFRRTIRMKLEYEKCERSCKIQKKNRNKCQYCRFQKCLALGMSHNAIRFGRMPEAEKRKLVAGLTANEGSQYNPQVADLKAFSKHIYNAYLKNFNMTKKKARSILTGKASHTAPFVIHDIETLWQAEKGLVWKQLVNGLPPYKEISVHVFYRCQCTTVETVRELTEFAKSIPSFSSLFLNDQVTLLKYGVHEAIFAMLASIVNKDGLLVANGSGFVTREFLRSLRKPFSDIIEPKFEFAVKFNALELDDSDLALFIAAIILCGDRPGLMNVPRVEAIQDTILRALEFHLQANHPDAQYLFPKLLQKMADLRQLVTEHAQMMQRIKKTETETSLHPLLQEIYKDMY

[15] = biological target: T2, Peroxisome proliferator-activated receptor delta; remark: listed apart in the source
[16] = species on record: Rattus norvegicus; format: functional, Plasma; details: at 10 mg/kg/day
[17] = species on record: Mus musculus; details: Plasma
[18] = species on record: Rattus norvegicus; format: functional, Plasma; details: at 10 mg/kg/day; remark: listed apart in the source
[19] = species on record: Rattus norvegicus; format: functional, Plasma; details: at 10 mg/kg/day; remark: listed apart in the source
[20] = species on record: Mus musculus; format: functional, Plasma; details: at 30 mg/kg/day
[21] = species on record: Mus musculus; format: functional, Plasma; details: at 10 mg/kg/day
[22] = species on record: Mus musculus; format: functional, Plasma; details: at 30 mg/kg/day; remark: listed apart in the source
[23] = species on record: Mus musculus; format: functional, Plasma; details: at 10 mg/kg/day; remark: listed apart in the source
[24] = species on record: Rattus norvegicus; format: functional, Plasma; details: at 30 mg/kg/day; remark: listed apart in the source
[25] = species on record: Mus musculus; format: functional, Plasma; details: at 3 mg/kg/day
[26] = species on record: Mus musculus; format: functional, Plasma; details: at 30 mg/kg/day; remark: listed apart in the source
[27] = species on record: Mus musculus; format: functional, Plasma; details: at 3 mg/kg/day; remark: listed apart in the source
[28] = species on record: Mus musculus; format: functional, Plasma; details: at 30 mg/kg/day; remark: listed apart in the source
[29] = species on record: Rattus norvegicus; format: functional, Plasma; details: at 3 mg/kg/day
[30] = species on record: Rattus norvegicus; format: functional, Plasma; details: at 3 mg/kg/day; remark: listed apart in the source
[31] = species on record: Rattus norvegicus; details: in vivo, po, 10 mg/kg
[32] = species on record: Rattus norvegicus; format: functional, Plasma; details: at 3 mg/kg/day; remark: listed apart in the source
[33] = species on record: Rattus norvegicus; format: functional, Plasma; details: at 30 mg/kg/day; remark: listed apart in the source

Compound | Dec [1] [%] | IC50 [2] [nM] | half-life [4] [h] | EC50 ([6]; read-out: EC50) [nM] | clearance [8] [mL/min/kg] | Dec [10] [%] | Corr [12] [%] | bioavailability [13] [%] | IC50 [14] [nM] | EC50 [15] [nM] | Corr [16] [%] | Dec [18] [%] | Dec [19] [%] | Dec [21] [%] | Corr [23] [%] | further results
CCCc1c(OCCCSc2ccc(CC(=O)O)cc2Cl)ccc2c(CC)noc12 [L-165461] | -14 | 570 | 1 | 247 | 17.6 | 42 | 29 | 50 |  |  |  |  |  |  |  | Dec [3]: 67%; Corr [5]: 66%; Dec [7]: 52%; Dec [9]: 70%; Corr [11]: 33%
CCCc1c(OCCCSc2ccc(CC(=O)O)cc2Cl)ccc(/C(CC)=N/O)c1O | 15 | 100 | 2.8 | 74 | 5.7 | 65 | 44 | 33 | 10 | 9 |  |  |  |  |  | Corr [5]: 89%; Dec [7]: 54%; Dec [9]: 80%
CCCc1c(OCCCSc2ccc(CC(=O)O)cc2Cl)ccc2c(-c3ccccc3)coc12 [L-796449] | 88 | 54 | 2.1 | 18 |  | 66 | 56 | 84 |  |  | 27 | 13 | 67 | 72 | 77 | CL (mL.min-1.kg-1) [17]: 3.3; Dec [20]: 86%; Corr [22]: 94%
CCCc1c(OCCCSc2ccc(CC(=O)O)cc2Cl)ccc2c(CC)coc12 |  | 1730 |  | 1300 |  |  |  |  |  |  |  |  |  |  |  | Dec [20]: 60%; Corr [22]: 74%
CCCc1c(OCCCSc2ccc(CC(=O)O)cc2Cl)ccc(C(C)=O)c1O |  | 7400 |  | 1600 |  |  |  |  | 20 | 80 |  |  |  |  |  | 
CCCc1c(OCCCSc2ccc(CC(=O)O)cc2Cl)ccc(C(=O)CC)c1O |  | 600 |  | 260 |  |  |  |  | 20 | 10 |  |  |  |  |  | 
CN(CCOc1ccc(CC2SC(=O)NC2=O)cc1)c1ccccn1 (stereo not given) [ROSIGLITAZONE] | 86 |  |  |  |  | 94 | 109 |  |  |  | 99 | 78 | 54 | 75 | 65 | EC50 [6]: Not Active
CCCc1c(OCCCSc2ccc(CC(=O)O)cc2Cl)ccc2c(C(F)(F)F)noc12 |  | 310 | 4.7 | 125 | 2.6 |  | 95 | 100 | 10 | 5 | 83 | -53 | 52 | 46 | 71 | Dec [24]: -65%; Dec [25]: 46%; Dec [26]: 81%; Corr [27]: 30%; Corr [28]: 96%; Dec [29]: -34%; Dec [30]: 45%; nAUC [31]: 2520 ng·h/mL; Corr [32]: 18%; Dec [33]: 74%
